The values that follow come from patent publication US10508115B2, “Toll-like receptor 7 (TLR7) agonists having heteroatom-linked aromatic moieties, conjugates thereof, and methods and uses therefor” (BRISTOL-MYERS SQUIBB COMPANY, priority 2017, dated 2019).

SMILES strings stand for the structures. pEC50: −log10 of the molar value.

For one assay, the target named is human TLR7 (Homo sapiens (Human), UniProt Q9NYK1). The assay is described as follows: HEK-Blue TLR7 reporter assay (TLR7 agonist activity). The format is cell-based. The settings on record: HEK-Blue TLR7 cells, SEAP reporter, 18 h treatment; read-out: TLR7 Agonism (EC50). On the procedure: This example describes a method for assaying TLR7 agonist activity of the compounds disclosed in this specification.
human TLR7, sequence (Q9NYK1 27-1049): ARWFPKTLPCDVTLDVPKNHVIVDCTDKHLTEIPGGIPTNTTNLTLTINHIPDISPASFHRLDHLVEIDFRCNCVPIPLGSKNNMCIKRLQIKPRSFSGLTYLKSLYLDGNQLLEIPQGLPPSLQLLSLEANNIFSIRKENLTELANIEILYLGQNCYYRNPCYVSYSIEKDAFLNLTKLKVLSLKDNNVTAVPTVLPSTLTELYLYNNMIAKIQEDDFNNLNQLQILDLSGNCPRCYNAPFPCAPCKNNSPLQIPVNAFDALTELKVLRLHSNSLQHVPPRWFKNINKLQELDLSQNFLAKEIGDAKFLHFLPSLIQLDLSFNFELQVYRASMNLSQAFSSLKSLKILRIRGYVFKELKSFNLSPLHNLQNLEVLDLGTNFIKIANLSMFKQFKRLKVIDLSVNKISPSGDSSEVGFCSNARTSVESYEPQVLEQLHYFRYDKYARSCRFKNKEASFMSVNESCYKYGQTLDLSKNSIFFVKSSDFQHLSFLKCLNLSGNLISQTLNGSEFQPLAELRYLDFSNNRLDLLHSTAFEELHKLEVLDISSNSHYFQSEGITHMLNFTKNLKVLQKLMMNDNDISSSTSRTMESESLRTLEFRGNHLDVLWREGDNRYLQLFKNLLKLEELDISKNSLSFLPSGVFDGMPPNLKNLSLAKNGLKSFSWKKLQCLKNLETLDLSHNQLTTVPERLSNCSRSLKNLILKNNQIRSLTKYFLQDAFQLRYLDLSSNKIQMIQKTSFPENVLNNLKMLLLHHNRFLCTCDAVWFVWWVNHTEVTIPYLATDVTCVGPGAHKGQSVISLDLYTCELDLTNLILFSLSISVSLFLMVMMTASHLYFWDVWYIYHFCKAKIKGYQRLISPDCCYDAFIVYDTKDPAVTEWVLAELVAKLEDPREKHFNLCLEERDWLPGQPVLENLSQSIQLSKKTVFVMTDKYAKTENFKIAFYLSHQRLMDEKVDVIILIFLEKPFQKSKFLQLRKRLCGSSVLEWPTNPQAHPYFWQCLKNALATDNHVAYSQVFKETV
HEK-Blue™ TLR7 cells were added to each well of a 384-well tissue-culture plate (15,000 cells per well) and incubated 16-18 h at 37° C., 5% CO2. Compounds (100 nl) were dispensed into wells containing the HEK-Blue™ TLR cells and the treated cells were incubated at 37° C., 5% CO2. After 18 h treatment ten microliters of freshly-prepared Quanti-Blue™ reagent (Invivogen) was added to each well, incubated for 30 min (37° C., 5% CO2) and SEAP levels measured using an Envision plate reader (OD=620 nm).
A general note: Reporter assays use an easily measured gene product as a stand-in for the process of interest.
Take `CCCCOc1nc(N)c2nc(O)n(Cc3cccc(Oc4cccc(CNC5CCOCC5)c4)c3)c2n1` [IIa-04]: the pEC50 – broadly, −log10 of the EC50, conventionally taken in molar units – is 6.95.
On the same count and under the same terms, the result for `CCCCOc1nc(N)c2nc(O)n(Cc3cccc(Oc4cccc(CNCc5ccncc5)c4)c3)c2n1` [IIa-11] reads 6.37.
Turning to `CCCCOc1nc(N)c2nc(O)n(Cc3ccc(Oc4ccc(CO)cc4)cc3)c2n1` [Ia-01], the pEC50 was 7.85.
For the compound `CCCCOc1nc(N)c2nc(O)n(Cc3ccc(Oc4ccc(CNC)cc4)cc3)c2n1` [Ia-02], the pEC50 is 8.89.
`CCCCOc1nc(N)c2nc(O)n(Cc3ccc(Oc4ccc(CNCCOC)cc4)cc3)c2n1` [Ia-07]: the pEC50 is 8.89.
`CCCCOc1nc(N)c2nc(O)n(Cc3ccc(Oc4ccc(CNCCO)cc4)nc3)c2n1` [Ib-06]: the pEC50 was 9.04.
Consider `CCCCOc1nc(N)c2nc(O)n(Cc3ccc(Oc4ccc(CNCCOC)cc4)nc3)c2n1` [Ib-07], for which the pEC50 was 9.21.
With `CCCCOc1nc(N)c2nc(O)n(Cc3ccc(Oc4ccc(CNC5CC5)cc4)nc3)c2n1` [Ib-17], the pEC50 was 9.08.
Turning to `CCCCOc1nc(N)c2nc(O)n(Cc3ccc(Oc4cccc(CNCCO)n4)cc3)c2n1` [Ic-05], the pEC50 is 9.06.
Turning to `CCCCOc1nc(N)c2nc(O)n(Cc3ccc(Oc4cccc(CNCCOC)n4)cc3)c2n1` [Ic-06], the pEC50 is 8.55.
Same read-out and setting: the same measure for `CCCCOc1nc(N)c2nc(O)n(Cc3ccc(Oc4ccc(CNCCS(C)(=O)=O)cc4)c(F)c3)c2n1` [Ie-07]: 8.77.

The next assay deals with interleukin 6 (IL-6). The assay is described as follows: Interleukin 6 induction assay in human whole blood. It is filed as cell-based. The settings on record: 37° C. for 20 h, AlphaLISA, read-out: IL6 Induction (EC50). On the procedure:
This example describes a method for assaying interleukin 6 induction by compounds disclosed in this specification.
Compounds diluted in DMSO were transferred to individual wells of a Matrix Technologies clear, V-bottom 384-well plate using ECHO acoustic liquid handling technology (25 nL per well). Human whole-blood samples (25 uL) were added to each well using a CyBio FeliX liquid handling instrument. The plate was shaken on a plate shaker for three min before incubating the reaction mixtures at 37° C. for 20 h. Basel RPMI 1640 medium (supplemented with L-glutamine) was then added to each well (25 uL per well) prior to liberating plasma from each sample by centrifugation (450×g, 5 min, ambient temperature). Treated plasma samples (3 uL) were subsequently transferred to individual wells of a white, shallow, 384-well ProxiPlate (Perkin Elmer) using the FeliX liquid handling instrument and their interleukin 6 levels were measured using AlphaLISA technology as described by the manufacturer, PerkinElmer. Data analyses software was used to determine compound EC50 values where the baseline was established using average DMSO values and 100% induction established using reference compound values at the highest concentration tested. EC50's can be determined with software such as Graphpad Prism™.
(Alpha assays give light when donor and acceptor beads are brought close together.)
For the compound `CCCCOc1nc(N)c2nc(O)n(Cc3ccc(Oc4ccc(CO)cc4)cc3)c2n1` [Ia-01], the pEC50 is 6.30.
`CCCCOc1nc(N)c2nc(O)n(Cc3ccc(Oc4ccc(CNC5CC5)cc4)cc3)c2n1` [Ia-03]: the pEC50 was 7.75.
For `CCCCOc1nc(N)c2nc(O)n(Cc3ccc(Oc4ccc(CNC5CCC5)cc4)cc3)c2n1` [Ia-04], the negative-log EC50 (pEC50) is 7.98.
With `CCCCOc1nc(N)c2nc(O)n(Cc3ccc(Oc4ccc(CNC5COC5)cc4)cc3)c2n1` [Ia-05], the pEC50 is 7.51.
As for `CCCCOc1nc(N)c2nc(O)n(Cc3ccc(Oc4ccc(CNCCO)cc4)cc3)c2n1` [Ia-06], the negative-log EC50 (pEC50) was 7.76.
For the compound `CCCCOc1nc(N)c2nc(O)n(Cc3ccc(Oc4ccc(CNCCOC)cc4)cc3)c2n1` [Ia-07], the pEC50 was 8.18.
Consider `CCCCOc1nc(N)c2nc(O)n(Cc3ccc(Oc4ccc(CNCc5ccccc5)cc4)cc3)c2n1` [Ia-08], for which the pEC50 is 7.61.
For the compound `CCCCOc1nc(N)c2nc(O)n(Cc3ccc(Oc4ccc(CO)cc4)nc3)c2n1` [Ib-01], the pEC50 was 6.98.
In the case of `CCCCOc1nc(N)c2nc(O)n(Cc3ccc(Oc4ccc(CNC)cc4)nc3)c2n1` [Ib-02], the pEC50 is 7.53.
On to `CCCCOc1nc(N)c2nc(O)n(Cc3ccc(Oc4ccc(CNC(C)C)cc4)nc3)c2n1` [Ib-03], for which the pEC50 is 8.12.
Take `CCCCOc1nc(N)c2nc(O)n(Cc3ccc(Oc4ccc(CNC5COC5)cc4)nc3)c2n1` [Ib-05]: the pEC50 was 8.02.
The same measure, in the same setting: the result for `CCCCOc1nc(N)c2nc(O)n(Cc3ccc(Oc4ccc(CNCCO)cc4)nc3)c2n1` [Ib-06] reads 7.97; that for `CCCCOc1nc(N)c2nc(O)n(Cc3ccc(Oc4ccc(CNCCOC)cc4)nc3)c2n1` [Ib-07], 8.24.
As for `CCCCOc1nc(N)c2nc(O)n(Cc3ccc(Oc4ccc(CNC5C6CC5C6)cc4)nc3)c2n1` (stereo not drawn) [Ib-09], the pEC50 is 8.23.
`CCCCOc1nc(N)c2nc(O)n(Cc3ccc(Oc4ccc(CNC5CC(F)(F)C5)cc4)nc3)c2n1` [Ib-10]: the pEC50 is 7.84.
For `CCCCOc1nc(N)c2nc(O)n(Cc3ccc(Oc4ccc(CNC5CCCC5)cc4)nc3)c2n1` [Ib-11], the pEC50 was 8.09.
`CCCCOc1nc(N)c2nc(O)n(Cc3ccc(Oc4ccc(CNCC(C)C)cc4)nc3)c2n1` [Ib-12]: the pEC50 was 8.42.
For `CCCCOc1nc(N)c2nc(O)n(Cc3ccc(Oc4ccc(CNCC(F)F)cc4)nc3)c2n1` [Ib-13], the pEC50 was 7.51.
`CCCCOc1nc(N)c2nc(O)n(Cc3ccc(Oc4ccc(CNCCS(C)(=O)=O)cc4)nc3)c2n1` [Ib-14]: the pEC50 is 7.72.
Take `CCCCOc1nc(N)c2nc(O)n(Cc3ccc(Oc4ccc(CNCC5CC5)cc4)nc3)c2n1` [Ib-15]: the pEC50 is 7.19.
Same read-out and setting: the same measure for `CCCCOc1nc(N)c2nc(O)n(Cc3ccc(Oc4ccc(CNCCC#N)cc4)nc3)c2n1` [Ib-16]: 7.07; for `CCCCOc1nc(N)c2nc(O)n(Cc3ccc(Oc4ccc(CNC5CC5)cc4)nc3)c2n1` [Ib-17]: 8.29; for `CCCCOc1nc(N)c2nc(O)n(Cc3ccc(Oc4cccc(CNCC(C)C)n4)cc3)c2n1` [Ic-01]: 8.00.
For the compound `CCCCOc1nc(N)c2nc(O)n(Cc3ccc(Oc4cccc(CNC5CCC5)n4)cc3)c2n1` [Ic-02], the pEC50 is 7.79.
Consider `CCCCOc1nc(N)c2nc(O)n(Cc3ccc(Oc4cccc(CNC5COC5)n4)cc3)c2n1` [Ic-03], for which the pEC50 was 7.11.
With `CCCCOc1nc(N)c2nc(O)n(Cc3ccc(Oc4cccc(CNCCO)n4)cc3)c2n1` [Ic-05], the pEC50 was 7.35.
For `CCCCOc1nc(N)c2nc(O)n(Cc3ccc(Oc4cccc(CNCCOC)n4)cc3)c2n1` [Ic-06], the pEC50 is 7.55.
As to `CCCCOc1nc(N)c2nc(O)n(Cc3ccc(Oc4cccc(CNCCC#N)n4)cc3)c2n1` [Ic-07], the pEC50 was 6.88.
In the case of `CCCCOc1nc(N)c2nc(O)n(Cc3ccc(Oc4ccc(CNCC(C)C)nc4)nc3)c2n1` [Id-01], the pEC50 is 7.55.
As for `CCCCOc1nc(N)c2nc(O)n(Cc3ccc(Oc4ccc(CNC5CCC5)nc4)nc3)c2n1` [Id-02], the pEC50 is 7.60.
As for `CCCCOc1nc(N)c2nc(O)n(Cc3ccc(Oc4ccc(CNC5CCOCC5)nc4)nc3)c2n1` [Id-03], the pEC50 is 7.85.
`CCCCOc1nc(N)c2nc(O)n(Cc3ccc(Oc4ccc(CNCCOC)nc4)nc3)c2n1` [Id-04]: the pEC50 was 7.89.
On to `CCCCOc1nc(N)c2nc(O)n(Cc3ccc(Oc4ccc(CNCCO)nc4)nc3)c2n1` [Id-05], for which the pEC50 was 7.92.
In the case of `CCCCOc1nc(N)c2nc(O)n(Cc3ccc(Oc4ccc(CNCC(F)F)nc4)nc3)c2n1` [Id-06], the pEC50 is 7.00.
Turning to `CCCCOc1nc(N)c2nc(O)n(Cc3ccc(Oc4ccc(CN5CCOCC5)nc4)nc3)c2n1` [Id-07], the pEC50 is 7.82.
Consider `CCCCOc1nc(N)c2nc(O)n(Cc3ccc(Oc4ccc(CN5CCN(C)CC5)nc4)nc3)c2n1` [Id-08], for which the pEC50 was 7.68.
For `CCCCOc1nc(N)c2nc(O)n(Cc3ccc(Oc4ccc(CNCC(C)C)cc4)c(F)c3)c2n1` [Ie-01], the pEC50 is 7.59.
Turning to `CCCCOc1nc(N)c2nc(O)n(Cc3ccc(Oc4ccc(CNC5CCC5)cc4)c(F)c3)c2n1` [Ie-02], the pEC50 is 7.72.
Same read-out and setting: the result for `CCCCOc1nc(N)c2nc(O)n(Cc3ccc(Oc4ccc(CN5CCC5)cc4)c(F)c3)c2n1` [Ie-03] reads 7.72; that for `CCCCOc1nc(N)c2nc(O)n(Cc3ccc(Oc4ccc(CNCC(F)F)cc4)c(F)c3)c2n1` [Ie-04], 6.34.
On to `CCCCOc1nc(N)c2nc(O)n(Cc3ccc(Oc4ccc(CNCCOC)cc4)c(F)c3)c2n1` [Ie-05], for which the pEC50 is 7.62.
`CCCCOc1nc(N)c2nc(O)n(Cc3ccc(Oc4ccc(CNCCO)cc4)c(F)c3)c2n1` [Ie-06]: the pEC50 is 7.54.
With `CCCCOc1nc(N)c2nc(O)n(Cc3ccc(Oc4ccc(CNCCS(C)(=O)=O)cc4)c(F)c3)c2n1` [Ie-07], the pEC50 is 6.89.
Same read-out and setting: the result for `CCCCOc1nc(N)c2nc(O)n(Cc3ccc(Oc4ccc(CNC5CCOCC5)cc4)c(F)c3)c2n1` [Ie-08] reads 8.12; that for `CCCCOc1nc(N)c2nc(O)n(Cc3ccc(Oc4ccc(CN5CCOCC5)cc4)c(F)c3)c2n1` [Ie-09], 6.60; that for `CCCCOc1nc(N)c2nc(O)n(Cc3ccc(Oc4ccc(CN5CCN(C)CC5)cc4)c(F)c3)c2n1` [Ie-10], 7.12.
Consider `CCCCOc1nc(N)c2nc(O)n(Cc3ccc(Nc4ccc(CNCC(C)C)cc4)nc3)c2n1` [If-01], for which the pEC50 is 7.62.
Still for that read-out and setting: the same measure for `CCCCOc1nc(N)c2nc(O)n(Cc3ccc(Nc4ccc(CNCCO)cc4)nc3)c2n1` [If-02]: 7.14; for `CCCCOc1nc(N)c2nc(O)n(Cc3ccc(Nc4ccc(CNC5CCOCC5)cc4)nc3)c2n1` [If-03]: 7.85.
`CCCCOc1nc(N)c2nc(O)n(Cc3ccc(Nc4ccc(CNC5CCC5)cc4)nc3)c2n1` [If-04]: the pEC50 was 8.60.
Take `CCCCOc1nc(N)c2nc(O)n(Cc3ccc(Nc4ccc(CNCC(F)F)cc4)nc3)c2n1` [If-05]: the pEC50 is 7.77.
Turning to `CCCCOc1nc(N)c2nc(O)n(Cc3ccc(Nc4ccc(CN5CCCC5)cc4)nc3)c2n1` [If-06], the pEC50 is 8.42.
Consider `CCCCOc1nc(N)c2nc(O)n(Cc3ccc(Nc4ccc(CNCC(C)(C)O)cc4)nc3)c2n1` [If-07], for which the pEC50 is 8.11.
As for `CCCCOc1nc(N)c2nc(O)n(Cc3ccc(Nc4ccc(CNCCS(C)(=O)=O)cc4)nc3)c2n1` [If-09], the pEC50 is 7.17.

The subject of the next assay is IFN-α.
Assay: not given
The settings on record: fold less potent than corresponding purine-8-one compound; cited from earlier work.
`CCCCOc1nc(N)c2c(n1)N(Cc1cccc(CN3CCCC3)c1)CC(=O)N2` [Vesatolimod, vesatolimod]: the “potency less than that of the corresponding purine-8-one compound, as measured by IFN-α induction” value was 100 ×.
